Experimental data taken from patent US9827315B2, “Compositions of pharmaceutical actives containing diethylene glycol monoethyl ether or other alkyl derivatives” (THEMIS MEDICARE LIMITED, priority 2013, dated 2017).
Values after ≈ are worked out from the molar mass of the structure shown.

What was measured:
[1] = cited from earlier work
[2] = Solubility of pharmaceutical actives in Diethylene glycol monoethyl ether; settings: for solubility: Diethylene glycol monoethyl ether, organic solvent or mixture, Solubility in Diethylene Glycol Monoethyl Ether

Row | Molecule | Solubility in water (descriptive) [1] | solubility [2] | other results
1 | CCOC1O[C@@H]2O[C@@]3(C)CC[C@H]4[C@H](C)CC[C@@H]([C@H]1C)[C@@]24OO3 (mixture of isomers) [Arteether, 10-Ethoxydecahydro-3,6,9-trimethyl-3,12-epoxy-12H-pyrano[4,3-j]-1,2-benzodioxepin] | quite water insoluble |  | Solubility in Diethylene Glycol Monoethyl Ether [2]: 80 mg/mL (≈ 256 mM)
2 | CCN1CCCC1CNC(=O)c1cc(S(=O)(=O)CC)c(N)cc1OC (centres unmarked) [Amilsulpride] | Practically insoluble in water, sparingly soluble in ethanol, soluble in methanol and freely soluble in dichloromethane | 25 mg/mL (≈ 67.7 mM) | 
3 | CO[C@H]1O[C@@H]2O[C@@]3(C)CC[C@H]4[C@H](C)CC[C@@H]([C@H]1C)[C@@]24OO3 [Artemether, (+)-(3-alpha,5a-beta,6-beta,8a-beta, 9-alpha,12-beta,12aR)-decahydro-10-methoxy-3,6,9-trimethyl-3,12-epoxy-12H-pyrano(4,3-j)-1,2-benzodioxepin] | practically insoluble | 100 mg/mL (≈ 335 mM) | 
4 | Cc1ccc(-c2cc(C(F)(F)F)nn2-c2ccc(S(N)(=O)=O)cc2)cc1 [Celecoxib] | very poorly soluble | 71.4 mg/mL (≈ 187 mM) | solubility in DMSO [1]: 200 mg/mL (≈ 524 mM); solubility in ethanol [1]: 100 mg/mL (≈ 262 mM)
5 | CC(=O)O[C@@]12CO[C@@H]1C[C@H](O)[C@@]1(C)C(=O)[C@H](O)C3=C(C)[C@@H](OC(=O)[C@H](O)[C@@H](NC(=O)OC(C)(C)C)c4ccccc4)C[C@@](O)([C@@H](OC(=O)c4ccccc4)[C@H]21)C3(C)C [Docetaxel, 1,7β,10β-trihydroxy-9-oxo-5β,20-epoxytax-11-ene-2α,4,13α-triyl 4-acetate 2-benzoate 13-{(2R,3S)-3-[(tert-butoxycarbonyl)amino]-2-hydroxy-3-phenylpropanoate}] | practically insoluble | 55 mg/mL (≈ 68.1 mM) | 
6 | NC(=O)Cc1cccc(C(=O)c2ccccc2)c1N [Nepafenac] |  | ≤ 2 mg/mL | 
7 | COc1ccnc(C[S+]([O-])c2nc3ccc(OC(F)F)cc3[nH]2)c1OC (centres unmarked) [Pantoprazole] |  |  | Solubility in Diethylene Glycol Monoethyl Ether [2]: 80 mg/mL (≈ 209 mM)
8 | CC1(C)O[C@@H]2C[C@H]3[C@@H]4CCC5=CC(=O)C=C[C@]5(C)[C@@]4(F)[C@@H](O)C[C@]3(C)[C@]2(C(=O)CO)O1 [Triamcinolone Acetonide, 9-Fluoro-11β,16α,17,21-tetrahydroxypregna-1,4-diene-3,20-dione cyclic 16,17acetal with acetone] | practically insoluble |  | 
9 | C[C@H]1[C@H](OC(=O)CCC(=O)[O-])O[C@@H]2O[C@@]3(C)CC[C@H]4[C@H](C)CC[C@@H]1[C@@]24OO3.[Na+] [sodium Artesunate] | soluble |  | 
10 | (3R,4S,5S,6R,7R,9R,11R,12R,13S,14R)-4-[(2,6-Dideoxy-3-C-methyl-3-O-methyl-a-L-ribo-hexopyranosyl)oxy]-14-ethyl-12,13-dihydroxy-7-methoxy-3,5,7,9,11,13-hexamethyl-6-[[3,4,6-trideoxy-3-(dimethylamino)-b-D-xylo-hexopyranosyl]oxy]oxacyclotetradecane-2,10-dione [Clarithromycin] | insoluble |  | 
11 | (3R,4S,5S,6R,7R,9R,11S,12R,13S,14S)-6-{[(2S,3R,4S,6R) -4-(dimethylamino)-3-hydroxy-6-methyloxan-2-yl]oxy}-14-ethyl-12,13-dihydroxy-4-{[(2R,4S,5S,6S)-5-hydroxy-4-methoxy-4,6-dimethyloxan-2-yl]oxy}-7-methoxy-3,5,7,9,11,13-hexamethyl-1-oxacyclotetradecane-2,10-dione [Azithromycin] | practically insoluble |  | 
12 | Rimexolone | Very slightly soluble in water; freely soluble in chloroform; soluble in ethyl acetate and in methanol |  | 
13 | Tacrolimus | Insoluble in water, freely soluble in ethanol, and very soluble in methanol and chloroform. |  | 
